Data published in PubChem BioAssay (NCI).
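Briefly, cells in 96-well plates were exposed to five compound concentrations for 48 h, and endpoints were estimated by linear interpolation. Here, GI50 denotes the concentration required for 50% inhibition of growth. TGI is the concentration that stops growth completely.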

Columns and labels:
Test in all cases: NCI tumour cell line growth inhibition, 48 h
SK-MEL-28 melanoma = test system: SK-MEL-28 melanoma
UACC-62 melanoma = test system: UACC-62 melanoma
U251 CNS = test system: U251 CNS
CCRF-CEM leukemia = test system: CCRF-CEM leukemia
RPMI-8226 leukemia = test system: RPMI-8226 leukemia
SK-OV-3 ovarian = test system: SK-OV-3 ovarian
RXF 393 renal = test system: RXF 393 renal
A549 NSCLC = test system: A549 NSCLC
OVCAR-3 ovarian = test system: OVCAR-3 ovarian
SK-MEL-5 melanoma = test system: SK-MEL-5 melanoma

SMILES	TGI (SK-MEL-28 melanoma) [µM]	TGI (UACC-62 melanoma) [µM]	TGI (U251 CNS) [µM]	TGI (CCRF-CEM leukemia) [µM]	TGI (RPMI-8226 leukemia) [µM]	TGI (SK-OV-3 ovarian) [µM]	TGI (RXF 393 renal) [µM]	TGI (A549 NSCLC) [µM]	TGI (OVCAR-3 ovarian) [µM]	TGI (SK-MEL-5 melanoma) [µM]	GI50 (A549 NSCLC) [µM]	GI50 (SK-MEL-28 melanoma) [µM]	GI50 (UACC-62 melanoma) [µM]	GI50 (U251 CNS) [µM]	GI50 (RPMI-8226 leukemia) [µM]	GI50 (SK-OV-3 ovarian) [µM]	GI50 (OVCAR-3 ovarian) [µM]	GI50 (SK-MEL-5 melanoma) [µM]	GI50 (RXF 393 renal) [µM]	GI50 (CCRF-CEM leukemia) [µM]
CCCCCCCCCCCCOC(=S)NC	44	31	32.8	> 100	36.1	58	32.5	–	–	–	–	–	–	–	–	–	–	–	–	–
NC(N)=N/N=C(/c1ccccc1)c1ccc(O)cc1O	> 100	> 100	57.3	–	79.8	> 100	> 100	> 100	> 100	65.8	–	–	–	–	–	–	–	–	–	–
COc1ccc(CC(C#N)c2cc(OC)c(OC)c(OC)c2)cc1 (centres undefined)	> 100	> 100	6.32	> 100	46.6	–	–	> 100	0.113	2.7	–	–	–	–	–	–	–	–	–	–
C=C(CN(CCN1CCOCC1)CC(=C)c1ccc(C(=O)Nc2ccccc2N)cc1)c1ccc(C(=O)Nc2ccccc2N)cc1	16.2	10.6	12.4	–	> 50	17.2	23.6	24.9	39.8	16.7	9.38	6.86	2.48	5.78	2.68	8.26	10.1	8.38	11.9	–
COC(=O)C1=C2CO[C@@H]3C[C@H]4C(C)(C)CCC[C@]4(C)C(=CC1)[C@]23C	> 100	> 100	> 100	46.4	29.9	–	> 100	> 100	32.2	43.2	36.8	45.3	41.9	43.4	13.6	–	11.1	20.8	50.9	21.6
CC1(C)CC(O)CCCCCCOc2c(CN)cccc2NC(=O)c2nc(cnc2N)-c2ccc(cc2)S1(=O)=O (centres undefined)	2.48	3.3	1.86	5.53	–	15.8	1.54	–	3.34	2.89	–	1.13	1.67	0.382	–	2.22	0.183	1.5	< 0.01	< 0.01
CO[C@H]1/C=C/C[C@H](C)[C@@H](C)S(=O)(=O)NC(=O)c2ccc3c(c2)N(C[C@@H]2CC[C@H]21)C[C@@]1(CCCc2cc(Cl)ccc21)CO3	8.04	2.46	6.86	5.03	0.534	12.6	–	12.7	3.75	3.15	3.29	2.61	0.659	2.47	0.132	3.5	1.9	1.61	–	1.3
CCCCCC/C=C/CCCCCCCc1cccc(O)c1C(=O)O	> 100	> 100	88.2	> 100	> 100	99.8	–	> 100	> 100	–	–	–	–	–	–	–	–	–	–	–
C/C(CC(=O)Nc1ccc(NC(=O)/C(C)=N/NS(=O)(=O)c2ccc(C)cc2)cc1)=N\NS(=O)(=O)c1ccc(C)cc1	> 100	> 100	> 100	–	> 100	> 100	> 100	> 100	> 100	> 100	–	–	–	–	–	–	–	–	–	–
CC(C)c1ccc(O)c(O)c(=O)c1 (tested in a mixture with another compound)	23.8	12.1	4.98	–	9.79	> 100	12	> 100	> 100	8.13	–	–	–	–	–	–	–	–	–	–
CC(=O)Oc1cc(OC(C)=O)c2cc3c(cc2c1OC(C)=O)C(=O)C1(CCCC1)C3=O	31.7	30.2	32.3	–	4.89	31.4	31.3	40.4	34.5	–	–	–	–	–	–	–	–	–	–	–
N#CNc1nc(C(=O)Nc2ccc(Cl)cc2)cc(-c2ccccc2)n1	> 100	> 100	> 100	–	> 100	–	> 100	> 100	> 100	> 100	–	–	–	–	–	–	–	–	–	–
CCN1CCC(O)(c2ccc(Cl)c(Cl)c2)C(C(=O)c2ccc(Cl)c(Cl)c2)C1 (centres undefined)	33	31.5	35.9	36.6	5.72	32.8	–	40.7	27	31.5	–	–	–	–	–	–	–	–	–	–
C=C(C)C(=O)N1c2ccc(OC)cc2CC1C(=O)OCC (centres undefined)	> 100	> 100	> 100	> 100	–	> 100	–	> 100	> 100	> 100	–	–	–	–	–	–	–	–	–	–
C=C(C)C1CCC2(CO)C(O)CC3(C)C(CCC4C5(C)CCC(O)C(C)(C)C5CCC43C)C12 (centres undefined)	32.5	–	9.96	> 100	–	–	9.65	32.6	29.2	21.3	–	–	–	–	–	–	–	–	–	–
O=C1c2c(O)cccc2C(C(=O)CCCC(=O)C2c3cccc(O)c3C(=O)c3c(O)cccc32)c2cccc(O)c21	4.53	2.04	1.88	8.02	0.752	1.05	–	1.64	0.798	0.671	–	–	–	–	–	–	–	–	–	–
CN(/C(=N\O)c1ccccc1)c1ccccc1	–	–	37.6	–	–	–	–	> 100	59.2	–	–	–	–	–	–	–	–	–	–	–
O/N=C1/C(=C/c2ccccc2)CCCC1C(NO)c1ccccc1 (centres undefined)	> 100	> 100	–	–	> 100	> 100	> 100	> 100	> 100	–	–	–	–	–	–	–	–	–	–	–
COC(=O)C1CCC(N2C(=O)CCC2C(=O)OC)=N1 (centres undefined)	> 100	> 100	> 100	> 100	> 100	> 100	–	> 100	> 100	–	–	–	–	–	–	–	–	–	–	–
Cc1cc(S(=O)(=O)Nc2nc3ccsc3c(=O)n2Cc2ccccc2)c(S)cc1Cl	57.2	44.4	> 100	> 100	> 100	–	> 100	> 100	53	34.2	34.5	25	21.5	35.9	33.4	–	24.3	12.5	44	34
Cn1c(=O)c2[nH]cnc2n(CC(=O)O)c1=O	> 100	> 100	> 100	> 100	> 100	> 100	–	> 100	> 100	> 100	–	–	–	–	–	–	–	–	–	–
CCCCCC/C=C\CCCCCCCCCc1c(O)c(OC)cc(O)c1CN(C)C	28.2	23.3	13.4	2.87	7.62	28.1	–	17.1	19	18.6	–	–	–	–	–	–	–	–	–	–
CC1CCC(C#N)(NOC2=NCCN2)CC1 (centres undefined)	> 100	> 100	32.4	> 100	> 100	–	> 100	> 100	> 100	> 100	39.4	> 100	25.4	15.8	40.4	–	28.9	38.6	> 100	56
COc1ccc(NCc2c(O)ccc3ccccc23)cc1	78.3	> 100	> 100	–	63.6	> 100	35	> 100	> 100	49.1	–	–	–	–	–	–	–	–	–	–
CCOC(CN(C)C(=O)OCC(Cl)(Cl)Cl)OCC	> 100	> 100	> 100	> 100	–	> 100	> 100	> 100	> 100	> 100	–	–	–	–	–	–	–	–	–	–
CC(C)[C@H](O)C(=O)N[C@H]1Cc2ccc3c(c2)[C@]24C5=C(N=C(O5)[C@H](C(C)C)NC1=O)c1nc(Cl)c(o1)-c1c(Cl)[nH]c5cccc(c15)-c1cccc2c1N[C@H]4O3	–	–	–	0.0277	–	> 10	–	> 10	0.00747	–	< 0.001	–	–	< 0.001	–	–	< 0.001	< 0.001	–	–
COC(=O)NN=C1C(C)(C)C(=NNC(=O)OC)C1(C)C	> 100	> 100	> 100	> 72.3	–	> 100	> 100	> 100	> 100	> 100	–	–	–	–	–	–	–	–	–	–
O=C(Cc1nc2ccccc2s1)C(=O)Nc1ccc(Cl)cc1Cl	> 100	–	> 100	–	> 100	> 100	–	> 100	> 100	–	–	–	–	–	–	–	–	–	–	–
CN(C)NC(=S)NC12CC3CC(CC(C3)C1)C2	> 100	> 100	> 100	> 100	–	> 100	> 100	> 100	> 100	> 100	–	–	–	–	–	–	–	–	–	–
CC(=O)[CH-]C(=O)c1ccccc1.CC(=O)[CH-]C(=O)c1ccccc1.CC12CC3(C)CC(C)(C1)CC([O-])(C2)C3.CC[O-].[Ti+4]	38.2	45.2	27.9	> 100	95.5	> 100	–	> 100	> 100	64.4	29.5	17	18.5	13.5	8.54	23.1	25.6	30.8	–	28.7
